Columns and labels:
Settings in all cases: binder
FES = FES (Homo sapiens, UniProt P07332)
MRCKa = MRCKa (Homo sapiens, UniProt Q5VT25)
JNK1 = JNK1 (Homo sapiens, UniProt P45983)
MST2 = molecular target: T1, MST2 (Homo sapiens, UniProt Q13188)
T1 sequence (Q13188 1-491): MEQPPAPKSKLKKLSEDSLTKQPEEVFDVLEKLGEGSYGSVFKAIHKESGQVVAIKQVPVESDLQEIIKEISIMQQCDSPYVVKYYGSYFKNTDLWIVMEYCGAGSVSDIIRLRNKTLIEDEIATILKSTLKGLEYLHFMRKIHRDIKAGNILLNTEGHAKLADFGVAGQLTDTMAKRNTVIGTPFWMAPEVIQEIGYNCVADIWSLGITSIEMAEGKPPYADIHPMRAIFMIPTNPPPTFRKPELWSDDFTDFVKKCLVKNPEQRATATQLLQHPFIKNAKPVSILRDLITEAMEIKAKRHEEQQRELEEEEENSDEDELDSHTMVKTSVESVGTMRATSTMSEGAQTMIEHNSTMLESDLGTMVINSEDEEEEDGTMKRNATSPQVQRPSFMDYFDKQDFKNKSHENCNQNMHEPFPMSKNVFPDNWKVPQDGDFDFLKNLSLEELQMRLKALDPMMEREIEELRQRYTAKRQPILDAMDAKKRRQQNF

DCAMKL1 = molecular target: T2, DCAMKL1 (Homo sapiens, UniProt O15075)
T2 sequence (O15075 1-740): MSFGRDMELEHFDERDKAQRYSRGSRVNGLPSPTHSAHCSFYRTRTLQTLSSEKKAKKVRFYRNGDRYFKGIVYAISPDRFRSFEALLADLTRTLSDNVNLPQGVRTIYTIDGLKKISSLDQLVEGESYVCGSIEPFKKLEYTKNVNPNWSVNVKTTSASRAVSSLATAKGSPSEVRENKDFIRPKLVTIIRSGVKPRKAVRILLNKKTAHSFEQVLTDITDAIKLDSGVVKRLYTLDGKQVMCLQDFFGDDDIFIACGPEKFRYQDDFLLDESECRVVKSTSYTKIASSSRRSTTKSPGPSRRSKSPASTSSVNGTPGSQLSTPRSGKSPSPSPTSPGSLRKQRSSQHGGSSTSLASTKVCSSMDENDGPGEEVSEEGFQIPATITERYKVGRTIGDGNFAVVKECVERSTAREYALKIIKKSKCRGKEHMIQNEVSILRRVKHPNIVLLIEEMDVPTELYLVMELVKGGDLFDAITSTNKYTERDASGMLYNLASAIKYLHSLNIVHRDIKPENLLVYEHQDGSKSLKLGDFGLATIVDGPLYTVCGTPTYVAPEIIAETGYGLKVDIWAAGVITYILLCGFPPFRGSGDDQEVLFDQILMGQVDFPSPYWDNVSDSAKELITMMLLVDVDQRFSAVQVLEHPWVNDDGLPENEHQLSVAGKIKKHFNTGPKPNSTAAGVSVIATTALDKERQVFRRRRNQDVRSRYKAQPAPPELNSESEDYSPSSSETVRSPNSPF

FLT1 = FLT1 (Homo sapiens, UniProt P17948)
Chain of FLT1 (P17948 whole entry): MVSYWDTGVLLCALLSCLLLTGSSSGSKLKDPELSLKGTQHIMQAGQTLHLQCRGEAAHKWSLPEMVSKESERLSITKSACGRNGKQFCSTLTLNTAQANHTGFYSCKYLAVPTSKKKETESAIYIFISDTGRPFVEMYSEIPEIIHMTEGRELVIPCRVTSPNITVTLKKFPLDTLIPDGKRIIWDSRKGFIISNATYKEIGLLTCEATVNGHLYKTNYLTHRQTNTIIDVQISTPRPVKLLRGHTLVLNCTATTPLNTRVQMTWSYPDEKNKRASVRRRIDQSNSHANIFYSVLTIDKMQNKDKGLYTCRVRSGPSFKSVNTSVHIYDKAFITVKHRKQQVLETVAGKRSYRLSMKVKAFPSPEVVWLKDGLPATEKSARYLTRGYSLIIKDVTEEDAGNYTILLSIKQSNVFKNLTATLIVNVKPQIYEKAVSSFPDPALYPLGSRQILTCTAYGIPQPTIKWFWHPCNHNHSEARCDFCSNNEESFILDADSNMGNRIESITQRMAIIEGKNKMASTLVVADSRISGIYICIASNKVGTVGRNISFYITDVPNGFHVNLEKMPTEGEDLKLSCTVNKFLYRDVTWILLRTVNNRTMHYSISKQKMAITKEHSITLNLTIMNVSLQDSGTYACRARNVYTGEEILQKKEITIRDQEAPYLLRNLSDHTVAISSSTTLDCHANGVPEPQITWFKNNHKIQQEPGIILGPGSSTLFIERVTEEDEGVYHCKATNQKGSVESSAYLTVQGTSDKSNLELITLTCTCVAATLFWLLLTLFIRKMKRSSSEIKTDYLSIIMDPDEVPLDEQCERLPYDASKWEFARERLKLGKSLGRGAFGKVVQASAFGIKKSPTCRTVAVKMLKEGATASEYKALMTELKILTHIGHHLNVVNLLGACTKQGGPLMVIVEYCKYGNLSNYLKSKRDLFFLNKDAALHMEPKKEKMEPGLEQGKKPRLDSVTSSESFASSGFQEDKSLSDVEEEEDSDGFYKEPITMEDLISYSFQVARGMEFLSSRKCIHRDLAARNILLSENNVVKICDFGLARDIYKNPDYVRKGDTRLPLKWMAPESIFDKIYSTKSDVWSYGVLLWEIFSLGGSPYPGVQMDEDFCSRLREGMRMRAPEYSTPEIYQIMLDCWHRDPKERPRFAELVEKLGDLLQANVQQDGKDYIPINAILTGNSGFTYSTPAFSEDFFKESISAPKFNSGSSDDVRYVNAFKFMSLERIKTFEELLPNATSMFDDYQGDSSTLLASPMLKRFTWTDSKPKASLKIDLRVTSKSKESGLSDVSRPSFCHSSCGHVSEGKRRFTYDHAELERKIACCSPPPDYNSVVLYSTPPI

BMX = molecular target: T3, BMX (Homo sapiens, UniProt P51813)
T3 sequence (P51813 1-675): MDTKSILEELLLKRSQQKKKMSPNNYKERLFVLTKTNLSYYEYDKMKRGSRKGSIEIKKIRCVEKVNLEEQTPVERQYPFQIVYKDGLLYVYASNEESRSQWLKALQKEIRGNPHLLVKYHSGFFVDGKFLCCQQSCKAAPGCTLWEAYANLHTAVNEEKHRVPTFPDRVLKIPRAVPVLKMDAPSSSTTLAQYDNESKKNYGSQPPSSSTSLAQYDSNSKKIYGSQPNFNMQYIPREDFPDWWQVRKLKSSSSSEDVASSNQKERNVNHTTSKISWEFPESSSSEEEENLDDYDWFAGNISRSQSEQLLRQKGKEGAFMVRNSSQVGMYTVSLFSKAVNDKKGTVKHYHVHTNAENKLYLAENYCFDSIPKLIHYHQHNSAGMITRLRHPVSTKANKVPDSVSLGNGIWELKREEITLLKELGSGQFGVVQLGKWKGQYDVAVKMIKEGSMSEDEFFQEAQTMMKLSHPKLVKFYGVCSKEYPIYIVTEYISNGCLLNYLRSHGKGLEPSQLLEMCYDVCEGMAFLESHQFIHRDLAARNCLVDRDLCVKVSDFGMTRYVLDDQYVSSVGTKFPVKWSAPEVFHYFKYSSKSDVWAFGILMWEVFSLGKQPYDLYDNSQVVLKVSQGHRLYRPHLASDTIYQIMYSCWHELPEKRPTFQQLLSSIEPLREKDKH

HIPK2 = HIPK2 (Homo sapiens, UniProt Q9H2X6)
Chain of HIPK2 (Q9H2X6 whole entry): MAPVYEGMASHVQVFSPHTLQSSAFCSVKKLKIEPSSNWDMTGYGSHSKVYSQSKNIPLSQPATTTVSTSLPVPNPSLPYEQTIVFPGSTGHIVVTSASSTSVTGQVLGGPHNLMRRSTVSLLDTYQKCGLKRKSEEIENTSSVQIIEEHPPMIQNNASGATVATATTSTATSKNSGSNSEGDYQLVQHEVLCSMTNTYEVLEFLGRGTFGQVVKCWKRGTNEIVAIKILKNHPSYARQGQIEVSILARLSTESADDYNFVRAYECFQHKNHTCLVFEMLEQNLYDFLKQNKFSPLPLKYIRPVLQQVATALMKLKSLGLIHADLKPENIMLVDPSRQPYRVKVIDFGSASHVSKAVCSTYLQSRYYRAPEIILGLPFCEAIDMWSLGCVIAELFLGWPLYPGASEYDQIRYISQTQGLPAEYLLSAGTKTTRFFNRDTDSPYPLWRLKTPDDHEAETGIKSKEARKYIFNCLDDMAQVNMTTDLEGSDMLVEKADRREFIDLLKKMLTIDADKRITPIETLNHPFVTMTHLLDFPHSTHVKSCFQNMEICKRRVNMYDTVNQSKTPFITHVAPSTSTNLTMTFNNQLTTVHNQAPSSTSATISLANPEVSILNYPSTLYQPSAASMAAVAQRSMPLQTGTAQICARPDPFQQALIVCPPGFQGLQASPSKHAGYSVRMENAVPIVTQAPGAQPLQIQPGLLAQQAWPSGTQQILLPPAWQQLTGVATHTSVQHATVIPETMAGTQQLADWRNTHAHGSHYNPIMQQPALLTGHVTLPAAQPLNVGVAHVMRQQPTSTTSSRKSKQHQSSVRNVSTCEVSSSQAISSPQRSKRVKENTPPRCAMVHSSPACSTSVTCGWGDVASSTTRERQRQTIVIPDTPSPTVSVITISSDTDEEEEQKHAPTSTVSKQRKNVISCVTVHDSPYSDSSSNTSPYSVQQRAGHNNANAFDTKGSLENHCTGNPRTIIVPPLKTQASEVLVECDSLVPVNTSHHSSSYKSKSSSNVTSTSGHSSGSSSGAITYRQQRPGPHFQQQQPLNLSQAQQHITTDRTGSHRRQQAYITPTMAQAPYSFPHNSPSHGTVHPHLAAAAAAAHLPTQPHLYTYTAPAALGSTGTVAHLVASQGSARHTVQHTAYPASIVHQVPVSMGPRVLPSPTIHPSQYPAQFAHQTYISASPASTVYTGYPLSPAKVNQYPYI

CaMK2d = CaMK2d (Homo sapiens, UniProt Q13557)
Chain of CaMK2d (Q13557 whole entry): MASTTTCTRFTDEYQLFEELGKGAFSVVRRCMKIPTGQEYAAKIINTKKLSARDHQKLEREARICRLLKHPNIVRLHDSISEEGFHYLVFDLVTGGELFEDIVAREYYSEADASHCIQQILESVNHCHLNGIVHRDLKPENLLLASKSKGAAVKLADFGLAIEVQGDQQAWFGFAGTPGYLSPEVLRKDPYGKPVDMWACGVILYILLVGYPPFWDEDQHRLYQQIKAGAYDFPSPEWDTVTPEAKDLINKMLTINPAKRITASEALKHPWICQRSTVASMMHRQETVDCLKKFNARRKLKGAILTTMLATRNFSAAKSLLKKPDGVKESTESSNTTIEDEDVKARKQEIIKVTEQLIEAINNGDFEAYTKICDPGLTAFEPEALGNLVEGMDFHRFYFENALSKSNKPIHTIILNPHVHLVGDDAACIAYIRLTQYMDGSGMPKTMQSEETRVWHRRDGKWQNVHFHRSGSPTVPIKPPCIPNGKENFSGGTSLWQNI

GPRK5 = GPRK5 (Homo sapiens, UniProt P34947)
Chain of GPRK5 (P34947 whole entry): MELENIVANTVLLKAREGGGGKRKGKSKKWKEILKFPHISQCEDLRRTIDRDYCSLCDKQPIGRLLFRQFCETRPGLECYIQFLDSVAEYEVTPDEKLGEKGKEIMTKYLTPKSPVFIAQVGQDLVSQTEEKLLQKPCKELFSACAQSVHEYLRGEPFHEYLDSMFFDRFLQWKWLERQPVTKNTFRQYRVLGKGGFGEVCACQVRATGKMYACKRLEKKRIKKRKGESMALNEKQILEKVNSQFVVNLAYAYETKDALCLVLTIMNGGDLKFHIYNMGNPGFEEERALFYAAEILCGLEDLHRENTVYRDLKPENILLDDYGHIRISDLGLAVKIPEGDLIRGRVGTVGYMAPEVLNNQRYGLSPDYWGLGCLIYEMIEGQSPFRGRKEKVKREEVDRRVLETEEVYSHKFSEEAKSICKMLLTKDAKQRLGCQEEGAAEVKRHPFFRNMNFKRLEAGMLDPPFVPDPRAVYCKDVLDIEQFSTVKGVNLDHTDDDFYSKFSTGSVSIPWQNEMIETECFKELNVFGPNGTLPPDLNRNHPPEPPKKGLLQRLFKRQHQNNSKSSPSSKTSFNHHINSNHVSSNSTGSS

Chain of FES (P07332 whole entry): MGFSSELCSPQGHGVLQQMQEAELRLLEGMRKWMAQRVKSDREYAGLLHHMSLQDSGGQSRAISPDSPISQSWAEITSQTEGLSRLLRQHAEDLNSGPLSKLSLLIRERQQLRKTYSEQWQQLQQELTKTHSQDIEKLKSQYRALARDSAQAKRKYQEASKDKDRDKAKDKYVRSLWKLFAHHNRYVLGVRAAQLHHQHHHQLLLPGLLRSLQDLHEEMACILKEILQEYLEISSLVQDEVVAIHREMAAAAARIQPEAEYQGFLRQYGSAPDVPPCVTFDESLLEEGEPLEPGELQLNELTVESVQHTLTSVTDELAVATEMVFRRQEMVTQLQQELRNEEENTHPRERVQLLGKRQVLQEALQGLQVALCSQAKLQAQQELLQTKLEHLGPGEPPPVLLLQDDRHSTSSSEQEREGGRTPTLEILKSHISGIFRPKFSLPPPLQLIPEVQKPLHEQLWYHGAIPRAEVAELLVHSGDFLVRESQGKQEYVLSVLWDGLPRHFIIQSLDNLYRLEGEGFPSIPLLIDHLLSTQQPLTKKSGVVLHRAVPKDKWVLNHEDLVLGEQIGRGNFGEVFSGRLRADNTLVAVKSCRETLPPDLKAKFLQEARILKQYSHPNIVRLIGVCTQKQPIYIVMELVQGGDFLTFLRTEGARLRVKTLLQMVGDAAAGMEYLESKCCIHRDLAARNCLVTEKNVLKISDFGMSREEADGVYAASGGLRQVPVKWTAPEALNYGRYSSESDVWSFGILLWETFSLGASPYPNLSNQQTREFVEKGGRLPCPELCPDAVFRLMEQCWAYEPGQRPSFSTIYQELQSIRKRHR
Chain of JNK1 (P45983 whole entry): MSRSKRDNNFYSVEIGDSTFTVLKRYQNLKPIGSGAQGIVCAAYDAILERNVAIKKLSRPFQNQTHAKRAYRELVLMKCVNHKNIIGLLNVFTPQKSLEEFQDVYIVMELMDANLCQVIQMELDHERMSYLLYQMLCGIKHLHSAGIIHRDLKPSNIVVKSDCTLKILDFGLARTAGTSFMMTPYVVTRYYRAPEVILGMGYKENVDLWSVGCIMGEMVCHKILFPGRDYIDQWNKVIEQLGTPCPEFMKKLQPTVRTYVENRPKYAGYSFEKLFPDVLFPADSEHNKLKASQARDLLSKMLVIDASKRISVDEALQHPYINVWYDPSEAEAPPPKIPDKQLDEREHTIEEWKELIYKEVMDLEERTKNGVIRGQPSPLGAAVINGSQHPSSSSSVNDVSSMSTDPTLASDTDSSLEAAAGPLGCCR

## Cc1cccc(-c2ccc(-c3cc4cnc(NCCCN5CCNCC5)nc4n(CCCCN)c3=O)c(Cl)c2)n1 [compound 29, 8-(4-Aminobutyl)-6-(2-chloro-4-(6-methylpyridin-2-yl)phenyl)-2-((3-(piperazin-1-yl)propyl)amino)pyrido[2,3-d]pyrimidin-7(8H)-one]
FES
  ΔTm 29: 6.0 °C
MRCKa
  ΔTm 29: -0.3 °C
JNK1
  ΔTm 29: 0.7 °C
MST2
  ΔTm 29: 9.1 °C
DCAMKL1
  ΔTm 29: -1.7 °C
FLT1
  ΔTm 29: 3.9 °C
BMX
  ΔTm 29: 2.1 °C
HIPK2
  ΔTm 29: 0.6 °C
CaMK2d
  ΔTm 29: -0.1 °C
GPRK5
  ΔTm 29: -0.4 °C

## Cc1cccc(-c2ccc(-c3cc4cnc(NCCCN5CCCC5=O)nc4n(CCCCN)c3=O)c(Cl)c2)n1 [compound 27, MR30]
FES
  ΔTm MR30 (27): 5.0 °C
MRCKa
  ΔTm MR30 (27): -0.2 °C
JNK1
  ΔTm MR30 (27): 0.4 °C
MST2
  ΔTm MR30 (27): 5.9 °C
DCAMKL1
  ΔTm MR30 (27): -1.8 °C
FLT1
  ΔTm MR30 (27): 2.4 °C
BMX
  ΔTm MR30 (27): 1.7 °C
HIPK2
  ΔTm MR30 (27): 0.0 °C
CaMK2d
  ΔTm MR30 (27): -0.5 °C
GPRK5
  ΔTm MR30 (27): -1.1 °C

## Cc1cccc(-c2ccc(-c3cc4cnc(Nc5ccc(O)cc5)nc4n(CCCCN)c3=O)c(Cl)c2)n1 [compound 31, 8-(4-Aminobutyl)-6-(2-chloro-4-(6-methylpyridin-2-yl)phenyl)-2-((4-hydroxyphenyl)amino) pyrido[2,3-d]pyrimidin-7(8H)-one]
FES
  ΔTm 31: 8.7 °C
MRCKa
  ΔTm 31: 3.3 °C
JNK1
  ΔTm 31: 2.7 °C
MST2
  ΔTm 31: 14.3 °C
DCAMKL1
  ΔTm 31: 1.1 °C
FLT1
  ΔTm 31: 5.6 °C
BMX
  ΔTm 31: 7.0 °C
HIPK2
  ΔTm 31: 2.6 °C
CaMK2d
  ΔTm 31: -0.1 °C
GPRK5
  ΔTm 31: -0.2 °C

## Cc1cccc(-c2ccc(-c3cc4cnc(Nc5ccc(CCCO)cc5)nc4n(CCCCN)c3=O)c(Cl)c2)n1 [compound 30, 8-(4-Aminobutyl)-6-(2-chloro-4-(6-methylpyridin-2-yl)phenyl)-2-((4-(3-hydroxypropyl)phenyl)amino)pyrido[2,3-d]pyrimidin-7(8H)-one]
FES
  ΔTm 30: 9.1 °C
MRCKa
  ΔTm 30: 4.4 °C
JNK1
  ΔTm 30: 2.8 °C
MST2
  ΔTm 30: 15.0 °C
DCAMKL1
  ΔTm 30: 2.0 °C
FLT1
  ΔTm 30: 4.3 °C
BMX
  ΔTm 30: 6.6 °C
HIPK2
  ΔTm 30: 2.6 °C
CaMK2d
  ΔTm 30: 0.1 °C
GPRK5
  ΔTm 30: -0.9 °C

## Cc1cccc(-c2ccc(-c3cc4cnc(Nc5cc(C(F)(F)F)ccc5C)nc4n(CCCCN)c3=O)c(Cl)c2)n1 [compound 28, 8-(4-Aminobutyl)-6-(2-chloro-4-(6-methylpyridin-2-yl)phenyl)-2-((2-methyl-5-(trifluoromethyl)phenyl)amino)pyrido[2,3-d]pyrimidin-7(8H)-one]
FES
  ΔTm 28: 8.5 °C
MRCKa
  ΔTm 28: -1.0 °C
JNK1
  ΔTm 28: 2.8 °C
MST2
  ΔTm 28: 10.1 °C
DCAMKL1
  ΔTm 28: 0.9 °C
FLT1
  ΔTm 28: 7.8 °C
BMX
  ΔTm 28: 3.1 °C
HIPK2
  ΔTm 28: -0.5 °C
CaMK2d
  ΔTm 28: -0.4 °C
GPRK5
  ΔTm 28: -0.6 °C

## Cc1cccc(-c2ccc(-c3cc4cnc(Nc5ccc(C)c(O)c5)nc4n(CCCCN)c3=O)c(Cl)c2)n1 [compound 32, 8-(4-Aminobutyl)-6-(2-chloro-4-(6-methylpyridin-2-yl)phenyl)-2-((3-hydroxy-4-methylphenyl)amino)pyrido[2,3-d]pyrimidin-7(8H)-one]
FES
  ΔTm 32: 8.8 °C
MRCKa
  ΔTm 32: 4.0 °C
JNK1
  ΔTm 32: 1.9 °C
MST2
  ΔTm 32: 14.7 °C
DCAMKL1
  ΔTm 32: 1.4 °C
FLT1
  ΔTm 32: 5.6 °C
BMX
  ΔTm 32: 7.3 °C
HIPK2
  ΔTm 32: 2.6 °C
CaMK2d
  ΔTm 32: 0.0 °C
GPRK5
  ΔTm 32: -0.4 °C

— paper doi:10.1101/2023.11.24.568596v1 (biorxiv, 2023)
